Data reported in US20240216407A1, “NOVEL POLYPHENOL COMPOUND” (NABOCUL COSMETICS CO., LTD., priority 2021, published 2024).

Tested on: collagen gene (COL1A1 gene)
Test: Promotion of collagen gene (COL1A1) mRNA expression in HaCaT cells, real-time PCR (QPCR)
Type: cell-based, human
Conditions: for increase of the expression level of the collagen gene (COL1A1 mRNA) compared to the control: 24 hours culture
Procedure: The OLANDU obtained in Example 2 was used to examine the effect of promoting the expression of collagen gene (COL1A1 gene) in a HaCaT cell that is a human epidermis-derived keratinocyte cell line.
First, the HaCaT cells were cultured in a DMEM medium (containing 10% FBS, 100 U/mL penicillin and […] streptomycin) in the presence of 5% CO2 at 37° C. and saturated humidity. Next, the HaCaT cells adjusted to a cell concentration of 5×10^5 cells/mL were seeded in each well of a 6-well cell culture plate and cultured in a CO2 incubator (5% CO2, 37° C.) for 24 hours. Thereafter, the OLANDU isolated in Example 2 was added to each well to provide a final concentration different from each other. Specifically, the final concentrations of OLANDU in the HaCaT cell culture medium were 1 μM, 5 μM, 10 μM, 50 μM and 100 μM, respectively. A well to which the OLANDU had not been added was used as a control (0 μM). After addition, they were subjected to culture for 24 hours.
After completion of the culture, the HaCaT cells were collected from each well, and total RNA was extracted with an RNA extraction reagent (RNAzol®, a product available from Molecular Research Center, Inc.). The concentration of total RNA obtained by extraction was confirmed with an ultratrace spectrophotometer (NanoDrop; a product available from Thermo Fisher Scientific). To this total RNA were added an oligo dT primer, a dNTP Mix, a 5×1st strand buffer, an RNase inhibitor, DTT and an M-MLV reverse transcriptase to synthesize cDNA from the total RNA. This cDNA was subjected to real-time PCR (QPCR) to measure the expression level of the collagen gene.
QPCR was performed with a commercially available QPCR reagent kit and QPCR measurement device (LightCycler® 480; a product available from Roche Diagnostics K. K.), and the detection was performed with SYBR® Green that is a double-stranded DNA-binding fluorescent dye. The COL1A1 gene encoding the α1 chain of type I collagen was selected as a target gene, and the primers of SEQ ID NOs: 1 and 2 shown in Table 1 below were used as QPCR primers. […]

SMILES: COc1ccc(/C=C/C(=O)OC[C@H]2O[C@H](OC(=O)c3cc(O)c(O)c(O)c3)[C@H](O)[C@@H](O)[C@@H]2O)cc1O [OLANDU]
- increase of the expression level of the collagen gene (COL1A1 mRNA) compared to the control (OLANDU 1 μM, control = 100): approximately two-fold
- increase of the expression level of the collagen gene (COL1A1 mRNA) compared to the control (OLANDU 10 μM, control = 100, highest expression-promoting action): more than three-fold
- expression level of the collagen gene (COL1A1 mRNA) compared to the control without OLANDU (OLANDU 1, 5, 10, 50 and 100 μM, 24 hours culture (FIG. 11)): greatly increased the expression level of the collagen gene
